Reference: ChEMBL document CHEMBL1157539, “Thousands of chemical starting points for antimalarial lead identification” (Nature, 2010)

Test system: Plasmodium falciparum
Test: GSK_TCMDC: Inhibition of Plasmodium falciparum 3D7 in whole erythrocytes, using parasite LDH activity as an index of growth.
Type: functional, organism-based
Conditions: Plasmodium falciparum, 3D7

SMILES	XC50 [nM]
OC(CNCc1ccccc1OCc1ccccc1)c1cccc(I)c1 (configuration not stated)	418
Cc1[nH]c(C)c(-c2ccc(Oc3ccc(C(F)(F)F)cc3)cc2)c(=O)c1Br	206
Cc1n[nH]c(C)c1C1CCN(CC2CCC(NC(=O)/C=C/c3ccc(Cl)c(Cl)c3)CC2)CC1 (configuration not stated)	729
COc1cc2c(cc1S(=O)(=O)c1ccc(OCc3ccc(Cl)cc3)cc1)CCN(Cc1ccc(NC(C)=O)s1)CC2	919
Cc1cccc2nc(-c3ccc(-c4ccc(NC(=O)Nc5ccc(F)c(F)c5F)cc4)s3)[nH]c12	176
CCC(CO)NCC(O)Cn1c2ccc(Cl)cc2c2cc(Cl)ccc21 (configuration not stated)	768
O=C(Nc1cccc(Cl)c1Cl)Nc1ccnc2ccccc12	745
COCCNC(=O)C1CCN(C(c2ccc(Cl)cc2)c2ccc(Cl)cc2)CC1	553
CCCCNC(=O)[C@@H]1CCCN1C(=O)c1ccc(O)c(-c2ccc(Cl)c(Cl)c2)c1	751
COc1ccc(CC(C)NCC(O)c2cccc(Cl)c2)cc1C (configuration not stated)	902
N#Cc1ccc(-c2ccc(C(=O)NCCCCN3CCC(c4cn(CCO)c5ccccc45)CC3)cc2)cc1	954
Cc1[nH]c(C)c(-c2ccc(-c3ccc(OC(F)(F)F)cc3)nc2)c(=O)c1Cl	201
COc1cc(Cc2cnc(N)nc2N)ccc1OCc1ccc(F)c(F)c1	910
CCCC[C@@H](C(=O)NCc1ccccc1C(F)(F)F)N1C(=O)CCC1C(=O)Nc1ccc([N+](=O)[O-])cc1 (some centres not stated)	848
O=S(=O)(c1c(Cl)cc(Cl)cc1Cl)N1CCCCC(c2ccc(Cl)cc2)=N1	402
O=C1CCCN1CCCNCc1ccc(-c2cccc(-c3nc4cc(C(F)(F)F)ccc4[nH]3)c2)cc1	191
CN(C)CCCOc1ccc(-c2nc(-c3ccc4c(c3)CCC4=NO)c(-c3ccncc3)[nH]2)cc1	832
COc1ccc(CNC2CCN(C)CC2)cc1-c1ccc(S(=O)(=O)NCCc2ccccn2)c(C)c1	1150
Cc1cc(=NN=Cc2ccc(Cl)cc2)c2ccccc2[nH]1	787
O=C(O[C@@H]1CN[C@H](C#Cc2cc3c(Nc4ccc5c(cnn5Cc5ccccc5)c4)ncnc3s2)C1)N1CCCC1	424
O=C(Nc1ccc(Cl)c(Cl)c1)N1CCC(CNCc2cccc([N+](=O)[O-])c2)CC1	979
CCC(C)CN1CCCN(c2ccc(NC(=O)c3cccs3)cc2)CC1 (configuration not stated)	802
O=C(/C=C/c1ccc(Cl)c(Cl)c1)NCCCCCN1CCN(C(=O)Nc2ccc(C(F)(F)F)cc2)CC1	721
N#Cc1cccc(NC(=O)NC2CCN(CCCCCNC(=O)C3CC3c3ccc(Cl)c(Cl)c3)CC2)c1 (configuration not stated)	785
NS(=O)(=O)Cc1cccc(-c2ccnc3ccc(-c4cccc(S(N)(=O)=O)c4)cc23)c1	1560

SMILES	XC50 [nM]
NC1=NC(c2ccccc2)(c2ccccc2)C(=O)N1CC1CCC1	753
COc1cc(CN2CCC(NC(=O)[C@H](Cc3ccccc3)NC(=O)Nc3ccc(Oc4ccccc4)cc3)C2)ccc1O (some centres not stated)	810
COc1ccc(C)cc1NC(=O)CSc1nc2cccnc2n1C1CCCCC1	544
CCn1c2ccccc2c2cc(Cc3cnc(N)nc3N)ccc21	221
CCC1CCCCN1S(=O)(=O)c1ccc(NC(=O)c2cc(C)on2)cc1 (configuration not stated)	1240
CC1=C(C(=O)Nc2cc3cn[nH]c3cc2F)C(c2cccc(NS(C)(=O)=O)c2)CC(=O)N1 (configuration not stated)	434
O=c1cc(NCCCN(Cc2cc3c(Cl)cc(Cl)cc3[nH]2)Cc2cc3c(Cl)cc(Cl)cc3[nH]2)[nH]c2ccccc12	121
CC(C)CCn1c(Sc2ccc(C#N)c([N+](=O)[O-])c2)nnc1-c1ccccc1Cl	1030
O=C(Nc1ccc(C(=O)N2CCN(CCN3CCN(c4cccc(C(F)(F)F)c4)CC3)CC2)cc1)c1cc(Cl)cc(Cl)c1	827
Cc1cc(CN2CCN(CCOC(c3ccccc3)c3ccccc3)CC2)ccc1O	935
COc1ccc(-c2onc(C(F)(F)F)c2-c2cc3ccccc3o2)c(O)c1	863
CC(C)Nc1cc(C(=O)N[C@@H](Cc2ccccc2)[C@H](O)CNCc2cccc(C(F)(F)F)c2)c(F)c(N2CCCCS2(=O)=O)c1	794
O=c1nc(NCCCCCN2CCC(c3c[nH]c4ccccc34)CC2)[nH]cc1Cc1ccc(Cl)c(Cl)c1	969
O=C(NC1CCCCC1)N(CCCn1ccnc1)Cc1csc(-c2ccc(CNCc3ccccc3)cc2)n1	843
OC(CN1CCN(c2cccc(Cl)c2)CC1)C(c1ccccc1)c1ccccc1 (configuration not stated)	1150
COc1ccc(N(C)Cc2cnc3nc(N)nc(N)c3n2)cc1	284
c1ccc2[nH]c(-c3ccc(-c4ccc(CN5CCCCC5)cc4)s3)nc2c1	742
Oc1ccccc1CN1CCN(C(c2ccccc2)c2ccccc2)CC1	761
Cc1ccc(-n2nc(C)c3c2NC(=O)CSC3c2ccsc2)cc1 (configuration not stated)	1010
O=C(Nc1ccon1)c1cc(-c2cccnc2)nc2ccc(Br)cc12	744
O=C(C=Cc1ccc(Cl)c(Cl)c1)NC1CCN(CCc2ccccc2)CC1	594
COc1nc2c(N3CCN(CCNCc4ccc5c(n4)NC(=O)CO5)CC3)ccnc2cc1F	758
O=C(Nc1ccc(N2CCNCC2)cc1)c1ccn2ncc(-c3cccc(Cl)c3)c2n1	922
Cn1cnc2c(Nc3ccncc3)nc(-c3ccc4ccccc4c3)nc21	867
O=C(Nc1cccc(CN2CCN(C(=O)c3cccc(Cl)c3)CC2)c1)c1ccco1	438

SMILES	XC50 [nM]
COc1cccc(Nc2nccc(-c3c(-c4cccc(NC(=O)c5c(F)cccc5F)c4)nn4ccccc34)n2)c1	178
O=C(Cc1n[nH]c(=O)c2ccccc12)Nc1cccc(C(=O)Nc2cccc(C(F)(F)F)c2)c1	169
O=C(NCCN1CCCC1)c1cccc(-c2ccc(-c3nc4ccccc4[nH]3)cc2)c1	919
O=C(/C=C/c1ccc(Cl)c(Cl)c1)NCCCCN1CCCN(C(=O)Nc2ccc(F)c(Cl)c2)CC1	1510
CCOc1cc(C(=O)N[C@@H](Cc2ccccc2)[C@H](O)CNCc2cc(OC)cc(OC)c2)cc(N2CCCCS2(=O)=O)c1	519
Cc1cc(NC(=O)Nc2ccc(Oc3ccccc3)cc2)c2ccccc2n1	840
FC(F)(F)c1cccc(CNCC2CCN(Cc3ccc4c(c3)OCO4)CC2)c1	725
COc1ccc2[nH]c(-c3ccccc3)cc(=NN=Cc3ccncc3)c2c1	812
O=C(Nc1ccc(Cl)c(C(F)(F)F)c1)NC1CCN(CCCCCNC(=O)C2CC2c2ccc(Cl)c(Cl)c2)CC1 (configuration not stated)	683
CN(C)c1ccc(CN2CCC(NC(=O)c3ccc(-c4cccc(F)c4)s3)CC2)cc1	1490
CNC(=N)c1ccc(NC(=O)Nc2ccc(C(=N)NC)cc2)cc1	577
Cc1cccc2nc(-c3ccc(-c4ccc(CNCCCN5CCCC5=O)cc4)cc3)[nH]c12	632
O=C1O[C@H](c2ccccc2)[C@H](c2ccccc2)N(C(=O)OCc2ccccc2)[C@H]1Cc1ccccc1C1CCCC1	59.1
CCNc1nc(OCC(F)(F)F)nc(N(c2ccccc2)c2ccccc2)n1	472
CCn1c(-c2nonc2N)nc2c(-c3cccc(Cl)c3)ncc(OCCCNCCc3c[nH]cn3)c21	983
COC(=O)c1cccc(CNCc2ccc(-c3cccc(-c4nc5cc(C(F)(F)F)ccc5[nH]4)c3)cc2)c1	156
CC(C)(C)C(=O)N1CCN(c2ccc([N+](=O)[O-])c(NC3CC3)c2)CC1	941
CC(=O)OCCN1C(=O)c2ccc3c4c(ccc(c24)C1=O)C(=O)N(CCOC(C)=O)C3=O	238
COc1ccc(Nc2nccc(N3CCC(NC(=O)C(C)c4ccc(Cl)cc4)CC3)n2)cc1 (configuration not stated)	934
COc1ccc(-c2nc(NC(=O)Cc3coc4cc(OC)ccc34)sc2C)cc1	609
FC(F)(F)c1cccc(Nc2nc(-n3ccnc3)nc(-n3ccnc3)n2)c1	724
CC(C)CNc1c2c(nc3cnn(-c4c5c(nc6cn[nH]c46)CCCC5)c13)CCCC2	795
COc1cc(-c2nc(-c3ccccc3)c(-c3ccccc3)[nH]2)ccc1OCCN(C)C	303
CN(C)C(=O)CC(=O)NCc1cccc(Cl)c1	711
Clc1ccccc1C=NN=c1cc[nH]c2ccccc12	850

SMILES	XC50 [nM]
COc1cccc2cc(C(=O)N[C@@H](CC(C)C)C(=O)N[C@H](C=NN(C)C(=O)OC(C)(C)C)Cc3ccccc3)oc12	262
Cc1ccc(-c2ccn(Cc3cccc(OCc4ccccc4)c3)n2)cn1.Cc1ccc(-c2ccnn2Cc2cccc(OCc3ccccc3)c2)cn1	1180
CC(C)Cc1nc(N)nc(N)c1-c1ccc(Cl)cc1	145
CCOC(=O)c1cnc2cc(N3CCCC3)c(Cl)cc2c1OCC	108
O=C(/C=C/c1ccc(Cl)c(Cl)c1)N1CCC(CN2CCC(Cc3c[nH]c4ccccc34)CC2)CC1	674
Cc1n[nH]c2ccc(-c3cc(OC[C@@H](N)Cc4ccccc4)cnc3-c3cc4ccccc4s3)cc12	810
COc1cc(Nc2ccnc3cc(-c4nccs4)ccc23)ccc1OCCCc1nc2ccccc2[nH]1	237
Cc1[nH]c2c(NCc3ccc(F)cc3)nccc2c1C	1360
COc1ccc2ncc(OC)c(CCN3CC[C@@H](NCc4ccc5c(n4)NC(=O)CS5)[C@H](O)C3)c2n1	831
O=S(=O)(Nc1cccc(F)c1CNCc1ccccn1)c1ccc(Cl)c(Cl)c1	889
COc1ccc(NC(=O)Nc2cc(C)nc3cccnc23)cc1Cn1ccnc1	736
O=C(/C=C/c1ccc(Cl)c(Cl)c1)NCCCCCN1CCN(C(=O)Nc2ccc(OC(F)F)cc2)CC1	945
CC12CCC(C(=O)N(CC(O)Cn3c4ccc(Cl)cc4c4cc(Cl)ccc43)C1=O)C2(C)C (configuration not stated)	844
COc1ccccc1CNC(=O)c1cc(OC)c(OC)cc1NC(=O)c1cccs1	1440
O=C(NC1CCN(CCC[C@]2(c3ccc(Cl)c(Cl)c3)CCCN(C(=O)c3ccccc3)C2)CC1)c1ccc(F)cc1	883
CCCCCCN1CCC(NCc2ccc(C(F)(F)F)cc2)CC1	375
Cc1cc(NC(=O)Nc2ccc(C(C)(C)C)cc2)c2ccccc2n1	719
Cc1cccc(NC(c2cccs2)c2c(NC(=O)c3ccccc3)sc(C)c2C)n1 (configuration not stated)	832
CN(Cc1cccc(F)c1)C1CCCN(c2cc(NC(=O)c3ccccc3)ccn2)C1 (configuration not stated)	919
COC(=O)c1ccc(NC(=O)Nc2cccc(CCNCc3ccccc3)c2)cc1	867
CC(CN1CCN(C)CC1)C(=O)Nc1cccc(-c2ccc(-c3nc4cc(F)ccc4[nH]3)cc2)c1 (configuration not stated)	807
CC1(C)CC2CC(C)(CN2C(=O)c2cc(C(C)(C)C)nn2Cc2ccccc2)C1 (configuration not stated)	1090
